Experiment [1] has as its system Parastagonospora nodorum. Briefly: Inhibition of Septoria nodorum growth in wheat at 40 ppm. The experiment is classed as functional, organism-based.
Experiment [2] has as its target T1, Mitochondrial complex II; succinate dehydrogenase (Septoria tritici, UniProt G4XX53+O42772).
T1 sequence (G4XX53 whole entry): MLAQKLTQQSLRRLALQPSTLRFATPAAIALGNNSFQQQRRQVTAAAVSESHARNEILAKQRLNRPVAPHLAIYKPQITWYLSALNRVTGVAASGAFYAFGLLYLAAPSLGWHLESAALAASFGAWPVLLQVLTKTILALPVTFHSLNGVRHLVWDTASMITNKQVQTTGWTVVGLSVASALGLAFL
T1 sequence (O42772 whole entry): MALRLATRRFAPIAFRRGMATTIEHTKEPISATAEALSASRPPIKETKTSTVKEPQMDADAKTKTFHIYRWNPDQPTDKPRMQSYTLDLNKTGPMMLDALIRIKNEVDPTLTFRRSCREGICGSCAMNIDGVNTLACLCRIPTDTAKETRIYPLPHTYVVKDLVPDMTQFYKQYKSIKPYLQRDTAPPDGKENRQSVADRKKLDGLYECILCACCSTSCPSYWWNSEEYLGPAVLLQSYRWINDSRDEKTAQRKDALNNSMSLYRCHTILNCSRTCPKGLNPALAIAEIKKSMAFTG
Briefly: Inhibition of Septoria nodorum succinate dehydrogenase and Qi site of mitochondrial respiratory chain complex 3 by FMET2-3 assay. Format: protein-complex assay, Parastagonospora nodorum.

For experiment [3], the system named is Parastagonospora nodorum. Briefly: Inhibition of Septoria nodorum growth. The experiment is classed as functional.

The source made the active and inactive calls. The rule behind the calls is not given here.

What is called IC50 is the midpoint of a concentration-inhibition curve.

Consider `CCCCCC[C@H]1C(=O)O[C@H](C)[C@H](NC(=O)c2cccc(NC=O)c2O)C(=O)O[C@@H](C)[C@@H]1OC(=O)CC(C)C` [ANTIMYCIN A], for which the outcome with Parastagonospora nodorum [1] was inactive. The IC50 in experiment [2] came to 0.002 µM. Besides, in the experiment on Parastagonospora nodorum [3], the GR50 came out at 0.033 µM.
`O=C(Nc1ccc(Oc2ccccc2)cc1)c1ccc2[nH]nnc2c1O`: the result in the experiment on Parastagonospora nodorum [1] was inactive. In the experiment on Parastagonospora nodorum [3], this compound gave a GR50 of over 30 µM.
Turning to `O=C(Nc1ccc(Oc2ccc(C(F)(F)F)cc2)cc1)c1sc2c[nH]nc2c1O`, in the experiment on Parastagonospora nodorum [1], the result was inactive. In experiment [2], this compound showed an IC50 of 0.026 µM. In addition, in the experiment with Parastagonospora nodorum [3], the GR50 is 11.517 µM.
Turning to `O=C(Nc1ccc(Oc2ccccc2)cc1)c1ccc2nn[nH]c2c1O`, the IC50 in experiment [2] was determined as 0.032 µM.
For `O=C(Nc1ccc(Oc2ccccc2)cc1)c1ccc2[nH]cnc2c1O`, the result in the experiment with Parastagonospora nodorum [1] was inactive. The IC50 in experiment [2] is over 30 µM. The compound also had a GR50 in the experiment with Parastagonospora nodorum [3] of over 30 µM.
With `O=C(Nc1ccc(Oc2ccccc2)cc1)c1ccc2c[nH]nc2c1O`, the result in the experiment with Parastagonospora nodorum [1] was inactive. This compound returned an IC50 in experiment [2] of 0.127 µM. Also, the GR50 in the experiment on Parastagonospora nodorum [3] was 1.909 µM.
Taken in the same sequence, the figures for `O=C(Nc1ccc(Oc2ccc(C(F)(F)F)cc2)cc1)c1ccc2cn[nH]c2c1O` were “inactive”, 0.026 µM and 0.343 µM.
For the compound `O=C(Nc1ccc(Oc2ccc(C(F)(F)F)cc2)cc1)c1ccc2[nH]nnc2c1O`, the outcome in the experiment on Parastagonospora nodorum [1] was inactive. In experiment [2], this compound came in with an IC50 of 0.005 µM. The compound also had a GR50 with Parastagonospora nodorum [3] of over 30 µM.
